According to US20080145313A1, “Compositions and Methods for the Treatment and Prevention of Neoplastic Disorders” (Genesis Research & Development Corporation Limited, priority 2006, published 2008):
Marks after values point to notes of the source that are not given here.

Key:
A549 cells = assay: Growth inhibition of siRNA-transfected A549 cells, SYBR Green I DNA content; assay type: cell-based, human; conditions: for growth inhibition, A549 cells: standardized against control siRNA; for Growth Inhibition in A549 cells by 10 nM siRNA: transporter gene targets
How it was run: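 A549 cells reverse-transfected with 10 nM Stealth siRNAs via Lipofectamine RNAiMAX, seeded at 5×10^3 cells/cm^2 in RPMI 1640/10% FCS; non-specific siRNA control. DNA content read 96 h post-transfection by SYBR Green I fluorescence (ex 485/em 535 nm) after freeze-thaw and Triton X-100 lysis; mean of three wells.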

SK-Mel-5 cells = assay: Growth inhibition of siRNA-transfected SK-Mel-5 cells, SYBR Green I DNA content; assay type: cell-based, human; conditions: 10 nM siRNA; standardized against control siRNA
Procedure: A549 cells (human lung cancer cell line; ATCC No. CCL-185), SK-MeI-5 cells (human melanoma cell line; ATCC No. HTB-70), MCF-7 cells (human adenocarcinoma cell line; ATCC No. HTB-22), HCT-116 cells (colorectal carcinoma; ATCC CCL-247) and HCT-116 p53 null cells (derived from ATCC No. CCL-247; Bunz et al., Science 282:1497-1501, 1998) were cultured in RPMI 1640 medium with 10% v/v heat-inactivated fetal calf serum (FCS). Cells were seeded at a density of 5×10^4 cells/cm^2 in multi-well tissue culture plates. Sequences of Stealth™ siRNA duplexes (Invitrogen) targeting human ribonucleotide reductase subunit 1 (SEQ ID NO: 22) and subunit 2 (SEQ ID NO; 38) are given in SEQ ID NO: 4830-4832 (DNA), and SEQ ID NO: 5136-5138 (RNA) for RRM1, and SEQ ID NO: 5306-5308 (DNA), and SEQ ID NO: 5303-5305 (RNA) for RRM2. siRNAs were transfected at different concentrations into cells using Lipofectamine™ RNAiMAX transfection reagent (Invitrogen). Non-specific siRNA (SEQ ID NO: 4804 and 4805 (DNA), and SEQ ID NO: 5301 and 5302 (RNA)) were used as controls. The cellular DNA content was measured using a SYBR Green I-based fluorometric assay at 24, 48, 72 and 96 hours after transfection (120 hours for the MCF-7 cells), as follows. At the indicated time points following reverse transfection, cells were harvested and frozen at −80° C. overnight. Cells were thawed and cell lysis buffer (phosphate-buffered saline (PBS) containing 1% Triton X-100, pH 7) and SYBR Green I (1:10^5 V/V; Invitrogen) was added to the wells and incubated overnight in the dark at 4° C.
The following day, cell lysates were mixed thoroughly, and DNA fluorescence was measured with a Wallac Victor^2 plate reader (Turku, Finland) set at an excitation frequency of 485 nm and measuring emission at 535 nm.
siRNA-mediated inhibition of cancer cell growth using siRNA targeting the YBX1 gene (SEQ ID NO: 92) was determined as follows. SK-MeI-5 cells were cultured in RPMI 1640 medium with 10% v/v heat-inactivated fetal calf serum. Cells were cultured as described above and reverse transfected with 0.1, 1.0, 10 and 40 nM (final concentration) of a pool of YBX1-targeting siRNAs (SEQ ID NO: 4982 and 4983 (DNA), and SEQ ID NO: 5277 and 5278 (RNA); referred to as 994 and 995 in FIG. 19) or a non-specific control (SEQ ID NO: 4804 (DNA), and SEQ ID NO: 5301 (RNA); referred to as Stealth 81 ctrl in FIG. 19), and cell growth determined after 120 h by measuring DNA fluorescence with a Wallac Victor^2 plate reader (Turku, Finland) set at an excitation frequency of 485 nm and measuring emission at 535 nm. Growth inhibition by the siRNA pool was standardized against the inhibition obtained with the control siRNAs.
siRNA-mediated RNAi was also determined on a panel of different cell lines. A549, SK-MeI-5, wt HCT-116, HCT-116−/−p53 and MCF-7 cells were transfected with 10 nM siRNAs targeting YBX-1 and growth inhibition determined as described above. The YBX1 siRNAs are given in SEQ ID NO: 4981 to 4985 (DNA) and SEQ ID NO: 5276-5280 (RNA). A non-specific siRNA (SEQ ID NO: 4804 (DNA) and SEQ ID NO: 5301 (RNA)) was used as control. Growth inhibition by the siRNAs, given in Table 14, was standardized against the inhibition obtained with the control siRNA.

[1] = 10 nM siRNA, DNA content 96 hours after transfection

SEQ ID NO: 4985: siRNA targeting YBX1 (chain 1 CAGCCTAGAGAGGACGGCAATGAAG; chain 2 CAGCCUAGAGAGGACGGCAAUGAAG; chemistry not given here; one strand in two spellings)
growth inhibition, A549 cells (A549 cells; 5 nM siRNA): +** (At least 20% inhibition) | growth inhibition, SK-Mel-5 cells (SK-Mel-5 cells): ++ (At least 50% inhibition)

SEQ ID NO: 5307: Stealth siRNA targeting RRM2 (chain 1 AATTCATCCCAATGAGCTTCACAGG; chain 2 AAUUCAUCCCAAUGAGCUUCACAGG; Stealth siRNA, chemical pattern not given here; one strand in two spellings)
Growth Inhibition in A549 cells (A549 cells; [1]): ++ (inhibits by at least 75%)

SEQ ID NO: 4932: siRNA targeting SLC29A1 (ENT1) (chain 1 TGATAAAGTAGCCGAAGGCACTTTC; chain 2 UGAUAAAGUAGCCGAAGGCACUUUC; chemistry not given here; one strand in two spellings)
Growth Inhibition in A549 cells by 10 nM siRNA (A549 cells; [1]): − (no growth inhibition)

SEQ ID NO: 4982: siRNA targeting YBX1 (chain 1 TTTGCTGGTAATTGCGTGGAGGACC; chain 2 UUUGCUGGUAAUUGCGUGGAGGACC; chemistry not given here; one strand in two spellings)
growth inhibition, A549 cells (A549 cells; 10 nM siRNA): +++ (At least 70% inhibition) | growth inhibition, SK-Mel-5 cells (SK-Mel-5 cells): +++ (At least 70% inhibition)

SEQ ID NO: 4983: siRNA targeting YBX1 (chain 1 TACTGTGGTCGACGCCCATAGGGTC; chain 2 UACUGUGGUCGACGCCCAUAGGGUC; chemistry not given here; one strand in two spellings)
growth inhibition, A549 cells (A549 cells; 10 nM siRNA): + (At least 20% inhibition) | growth inhibition, SK-Mel-5 cells (SK-Mel-5 cells): ++ (At least 50% inhibition)

SEQ ID NO: 4984: siRNA targeting YBX1 (chain 1 CAAGGTAGACCAGTGAGGCAGAATA; chain 2 CAAGGUAGACCAGUGAGGCAGAAUA; chemistry not given here; one strand in two spellings)
growth inhibition, A549 cells (A549 cells; 5 nM siRNA): ++** (At least 50% inhibition) | growth inhibition, SK-Mel-5 cells (SK-Mel-5 cells): +++ (At least 70% inhibition)

SEQ ID NO: 4924: siRNA targeting SLC16A1 (MCT1) (chain 1 TTAGACTTATCTTTCCCTGCCTTGG; chain 2 UUAGACUUAUCUUUCCCUGCCUUGG; chemistry not given here; one strand in two spellings)
Growth Inhibition in A549 cells by 10 nM siRNA (A549 cells; [1]): ++ (inhibits by at least 75%)
